Results: patent US20170218375A1, “MORPHOLINOS, MORPHOLINO UPREGULATING, AND ASSOCIATED METHODS” (University of Utah Research Foundation, priority 2011, published 2017)
{Dendrimer} = dendrimer conjugate (vivo-morpholino)

How the values were obtained:
[1] = system: sVEGFR2 mRNA; assay: RT-PCR of sVEGFR2 mRNA in mouse MS-1 cell line; type: cell-based
From the text: Because VEGFR2_MOe13 decreases mbVEGFR2 and increases sVEGFR2, it is expected that VEGFR2_MOe13 can inhibit angiogenesis and lymphangiogenesis in vivo. To study the effect of VEGFR2_MOe13 in animal models, moVEGFR2_MOe13 was created that targets the exon13-intron13 junction of the mouse VEGFR2 gene. By RT-PCR analysis, it was found moVEGFR2_MOe13 increased sVEGFR2 mRNA and decreased mbVEGFR2 mRNA in the mouse MS-1 cell line (FIG. 7A). […] FIGS. 7(f, g) show the mean area of corneal neovascularization and lymphangiogenesis respectively (n=13-16). Risk factors (p-value) were calculated by two-tail student's t-test (*: p<0.05, **p<0.01, ***p<0.001). Error bar is ±s.e.m.
Each morpholino oligomer was purchased from Gene Tools (Philomath, Oreg.). The sequences of each morpholino oligomer and primers for PCR are listed in supplemental Table. […] The cells were washed three times and fluorescence was detected by a FACScan Analyzer (BD Biosciences, San Jose, Calif.). […]
cDNAs were synthesized from 400 ng total RNA using Omniscript RT kit (Qiagen, Valencia, Calif.) and Oligo-dT primer(dT20) according to the manufacturer's instructions. Real-time PCR was performed using QuantiTect SYBR Green PCR Kit (Qiagen, Valencia, Calif.) and 1 μl of cDNA. […]

[2] = system: laser-induced choroidal neovascularization (CNV); assay: Laser-induced choroidal neovascularization (CNV) in mouse; type: in vivo
Procedure: It was also examined whether moVEGFR2_MOe13 inhibits laser-induced choroidal neovascularization (CNV). Each morpholino or DPBS was injected intravitreously on day 1 and day 4 after laser photocoagulation, and laser CNV volumes were examined on day 7. […] Vessel endothelial cells were stained with Alexa fluor488 conjugated isolectin GS-IB4. […] After photocoagulation, on day 1 and day 4, 2 ul of 100 ng/μl STD_MO, 500 ng/μl Goat IgG (AB-108-C, R&D Systems, Minneapolis, Minn.), 100 ng/μl moVEGFR2_MOe13, 500 ng/μl Goat Anti-mouse VEGF-A IgG (AF-493-NA, R&D Systems, Minneapolis, Minn.) or 2 ng/μl SU1498 (572888, EMD chemicals, Gibbstown, N.J.) was injected intravitreously. On day 7, CNV volumes were measured by confocal microscope. n=14-20 for each group. Risk factors (p-value) were calculated by two-tail student's t-test (*: p<0.05, **p<0.01). Error bar is ±s.e.m.
Each morpholino oligomer was purchased from Gene Tools (Philomath, Oreg.). The sequences of each morpholino oligomer and primers for PCR are listed in supplemental Table. HUVECs (Lonza, Walkersville, Md.) were cultured in EBM with EGM SingleQuot Kit supplements and growth factors according to the manufacturer's instructions (Lonza, Walkersville, Md.). MS-1 cells, a mouse endothelial cell line (ATCC, Manassas, Va.) were cultured in 5% FBS/DMEM. Morpholino oligomers were delivered to the nucleus by nucleofection (Amaxa, Gaithersburg, Md.) with a Basic Nucleofector Kit for Primary Mammalian Endothelial Cells (Amaxa, Gaithersburg, Md.) using program A-034 for HUVEC and MS-1 cells. For each nucleofection, 1×10^6 cells were used and plated on a 6-well plate. After 2 days of culture, cells were trypsinized and total RNA was extracted using a RNeasy mini kit (Qiagen, Valencia, Calif.) with DNaseI treatment. Detection of mbVEGFR2 was achieved by flow cytometry. […] The cells were washed three times and fluorescence was detected by a FACScan Analyzer (BD Biosciences, San Jose, Calif.). […]

[3] = system: mbVEGFR2 protein; assay: Western blot for mbVEGFR2 from mouse retinal protein after intravitreous injection; type: in vivo; conditions: 2 μl of 100 ng/μl intravitreously on day 0 and day 3, western blot on day 4
From the text: (§1) To administer morpholinos in vivo, morpholino conjugated with a dendrimer at the 3′ position (vivo-morpholino) was used for animal experiments. It should be understood that this technique is merely exemplary, and any other method of administration is considered to be within the present scope. […] Next, the protein level of mbVEGFR2 and sVEGFR2 in the retina and the ocular solution was examined by western blot. Consistent with real-time PCR results, moVEGFR2_MOe13 decreased mbVEGFR2 protein in the retina (FIG. 7C) and increased sVEGFR2 protein in the ocular solution (FIG. 7D).
(§2) To examine whether moVEGFR2_MOe13 could work in the mouse eye, on day 0 and day 3 2 μl of 100 ng/μl moVEGFR2_MOe13 or STD_MO or DPBS were injected intravitreously. On day 4, retinal total RNA was extracted with RNeasy mini kit with DNaseI treatment. sVEGFR2 and mbVEGFR2 mRNA expression were determined by the method described above. For western blot of mbVEGFR2, on day 4, retina was dissolved in RIPA buffer. For western blot of sVEGFR2, on 4 day, intraocular solution was obtained from 6 eyes by pipette. After centrifuge, supernatant was used for further experiment. For western blot, biotin-conjugated anti-VEGFR2 (BAF644, R&D Systems, Minneapolis, Minn.) was used at 1 μg/μl.

[4] = system: sVEGFR2 protein; assay: Western blot for sVEGFR2 from mouse ocular solution after intravitreous injection; type: in vivo; conditions: 2 μl of 100 ng/μl intravitreously on day 0 and day 3, western blot on day 4
From the text: as §1, §2

## 5′-cacccagggatgcctccatacCTAG-3′ (antisense CACCCAGGGATGCCTCCATACCTAG; all phosphorodiamidate morpholino (PMO), 3' {Dendrimer}) [moVEGFR2_MOe13, morpholino that targets the exon13-intron13 junction of the mouse VEGFR2 gene; in vivo conjugated with a dendrimer (vivo-morpholino)]
[1]
  sVEGFR2 mRNA by RT-PCR: increased
[2]; 2 μl intravitreously day 1 and day 4: 100 ng/μl moVEGFR2_MOe13, 500 ng/μl anti-mouse VEGF-A IgG, 2 ng/μl SU1498, CNV volume day 7
  suppression of CNV compared with anti-VEGF-A IgG and SU1498 (FIG. 9): comparable
[2]; intravitreous injection on day 1 and day 4 after laser photocoagulation, volume on day 7, compared with STD_MO (p<0.05) and DPBS (p<0.01)
  laser CNV volume: significantly suppressed
[3]
  mbVEGFR2 protein in the retina: decreased
[4]
  sVEGFR2 protein in the ocular solution: increased
